From ChEMBL document CHEMBL2040737, “Synthesis and biological evaluation of novel 2-(2-arylmethylene)hydrazinyl-4-aminoquinazoline derivatives as potent antitumor agents” (Eur J Med Chem, 2012)
pIC50: −log10 of the molar value.

Tests used:
[1] = test system: SGC-7901; experiment: Cytotoxicity against human SGC7901 cells after 72 hrs by MTT assay; assay type: functional, cell-based; conditions: SGC-7901, 72 h
[2] = test system: HT-29; experiment: Cytotoxicity against human HT-29 cells after 72 hrs by MTT assay; assay type: functional, cell-based; conditions: HT-29, 72 h
[3] = test system: NCI-H460; experiment: Cytotoxicity against human H460 cells after 72 hrs by MTT assay; assay type: functional, cell-based; conditions: NCI-H460, 72 h
[4] = test system: HepG2; experiment: Cytotoxicity against human HepG2 cells after 72 hrs by MTT assay; assay type: functional, cell-based; conditions: HepG2, 72 h
[5] = test system: HepG2; experiment: Ratio of iressa IC50 to compound IC50 for human HepG2 cells; assay type: functional
[6] = test system: HT-29; experiment: Ratio of iressa IC50 to compound IC50 for human HT-29 cells; assay type: functional

CN(C)CCNc1nc(N/N=C/c2ccc(Cl)cc2)nc2ccccc12
pIC50 [1]: 6.01
pIC50 [2]: 6.68
pIC50 [3]: 5.49
pIC50 [4]: 6.43

CN(C)CCNc1nc(N/N=C/c2ccc(F)cc2)nc2ccccc12
pIC50 [1]: 5.39
pIC50 [2]: 5.82
pIC50 [3]: 5.25
pIC50 [4]: 5.74

CN(C)CCNc1nc(N/N=C/c2ccc(F)cc2Cl)nc2ccccc12
pIC50 [1]: 5.77
pIC50 [2]: 6.48
pIC50 [3]: 5.75
pIC50 [4]: 6.17

CN(C)CCCNc1nc(N/N=C/c2ccc(Cl)cc2)nc2ccccc12
pIC50 [1]: 5.76
pIC50 [2]: 6.57
pIC50 [3]: 5.83
pIC50 [4]: 6.26

CN(C)CCCNc1nc(N/N=C/c2ccc(F)cc2)nc2ccccc12
pIC50 [1]: 5.56
pIC50 [2]: 6.06
pIC50 [3]: 5.39
pIC50 [4]: 6.06

CN(C)CCCNc1nc(N/N=C/c2ccc(F)cc2Cl)nc2ccccc12
pIC50 [1]: 5.78
pIC50 [2]: 5.94
pIC50 [3]: 5.74
pIC50 [4]: 6.17

Clc1ccc(/C=N/Nc2nc(NCCCN3CCOCC3)c3ccccc3n2)cc1
pIC50 [1]: 5.45
pIC50 [2]: 6.21
pIC50 [3]: 5.40
pIC50 [4]: 5.76

Fc1ccc(/C=N/Nc2nc(NCCCN3CCOCC3)c3ccccc3n2)cc1
pIC50 [1]: 5.17
pIC50 [2]: 5.66
pIC50 [3]: 5.23
pIC50 [4]: 5.40

Oc1ccccc1/C=N/Nc1nc(NCCCN2CCOCC2)c2ccccc2n1
pIC50 [1]: 5.49
pIC50 [2]: 5.68
pIC50 [3]: 5.53
pIC50 [4]: 5.42

Oc1cccc(/C=N/Nc2nc(NCCCN3CCOCC3)c3ccccc3n2)c1
pIC50 [1]: 5.31
pIC50 [2]: 5.20
pIC50 [3]: 5.33
pIC50 [4]: 5.19

CN1CCC(Nc2nc(N/N=C/c3ccc(Cl)cc3)nc3ccccc23)CC1
pIC50 [1]: 5.88
pIC50 [2]: 7.64
pIC50 [3]: 6.68
pIC50 [4]: 6.77

CN1CCC(Nc2nc(N/N=C/c3ccc(F)cc3)nc3ccccc23)CC1
pIC50 [1]: 5.75
pIC50 [2]: 5.85
pIC50 [3]: 5.58
pIC50 [4]: 5.71

CN1CCC(Nc2nc(N/N=C/c3ccc(F)cc3Cl)nc3ccccc23)CC1
pIC50 [1]: 5.79
pIC50 [2]: 6.57
pIC50 [3]: 6.21
pIC50 [4]: 5.95

COc1ccc(OC)c(/C=N/Nc2nc(NC3CCN(C)CC3)c3ccccc3n2)c1
pIC50 [1]: 5.37
pIC50 [2]: 5.55
pIC50 [3]: 5.32
pIC50 [4]: 5.14

CN(C)CCNc1nc(N/N=C/c2nccn2Cc2ccccc2)nc2ccccc12
pIC50 [1]: 5.37
pIC50 [2]: 5.58
pIC50 [3]: 5.02
pIC50 [4]: 5.02

Cc1ccc(Cn2ccnc2/C=N/Nc2nc(NCCN(C)C)c3ccccc3n2)cc1
pIC50 [1]: 5.56
pIC50 [2]: 5.85
pIC50 [3]: 5.38
pIC50 [4]: 5.53

CN(C)CCNc1nc(N/N=C/c2nccn2Cc2ccc(F)cc2)nc2ccccc12
pIC50 [1]: 5.62
pIC50 [2]: 6.03
pIC50 [3]: 5.98
pIC50 [4]: 5.51

CN(C)CCNc1nc(N/N=C/c2nccn2Cc2cccc(Cl)c2Cl)nc2ccccc12
pIC50 [1]: 5.73
pIC50 [2]: 6.59
pIC50 [3]: 6.06
pIC50 [4]: 6.17

CN(C)CCCNc1nc(N/N=C/c2nccn2Cc2ccccc2)nc2ccccc12
pIC50 [1]: 5.67
pIC50 [2]: 5.70
pIC50 [3]: 5.33
pIC50 [4]: 5.39

Cc1ccc(Cn2ccnc2/C=N/Nc2nc(NCCCN(C)C)c3ccccc3n2)cc1
pIC50 [1]: 5.59
pIC50 [2]: 5.61
pIC50 [3]: 5.77
pIC50 [4]: 5.43

CN(C)CCCNc1nc(N/N=C/c2nccn2Cc2ccc(F)cc2)nc2ccccc12
pIC50 [1]: 5.45
pIC50 [2]: 6.20
pIC50 [3]: 6.19
pIC50 [4]: 5.54

CN(C)CCCNc1nc(N/N=C/c2nccn2Cc2cccc(Cl)c2Cl)nc2ccccc12
pIC50 [1]: 5.93
pIC50 [2]: 6.44
pIC50 [3]: 6.37
pIC50 [4]: 6.07

C(=N\Nc1nc(NCCCN2CCOCC2)c2ccccc2n1)/c1nccn1Cc1ccccc1
pIC50 [1]: 5.40
pIC50 [2]: 5.55
pIC50 [3]: 5.39
pIC50 [4]: 5.32

Cc1ccc(Cn2ccnc2/C=N/Nc2nc(NCCCN3CCOCC3)c3ccccc3n2)cc1
pIC50 [1]: 5.52
pIC50 [2]: 5.50
pIC50 [3]: 5.42
pIC50 [4]: 5.50

Fc1ccc(Cn2ccnc2/C=N/Nc2nc(NCCCN3CCOCC3)c3ccccc3n2)cc1
pIC50 [1]: 5.72
pIC50 [2]: 6.03
pIC50 [3]: 5.61
pIC50 [4]: 5.66

Clc1cccc(Cn2ccnc2/C=N/Nc2nc(NCCCN3CCOCC3)c3ccccc3n2)c1Cl
pIC50 [1]: 5.58
pIC50 [2]: 6.14
pIC50 [3]: 6.04
pIC50 [4]: 5.90

CN1CCC(Nc2nc(N/N=C/c3nccn3Cc3ccccc3)nc3ccccc23)CC1
pIC50 [1]: 5.86
pIC50 [2]: 6.12
pIC50 [3]: 5.99
pIC50 [4]: 5.85

Cc1ccc(Cn2ccnc2/C=N/Nc2nc(NC3CCN(C)CC3)c3ccccc3n2)cc1
pIC50 [1]: 6.02
pIC50 [2]: 6.70
pIC50 [3]: 6.11
pIC50 [4]: 5.91

CN1CCC(Nc2nc(N/N=C/c3nccn3Cc3ccc(F)cc3)nc3ccccc23)CC1
pIC50 [1]: 6.11
pIC50 [2]: 6.19
pIC50 [3]: 6.68
pIC50 [4]: 6.01

CN1CCC(Nc2nc(N/N=C/c3nccn3Cc3cccc(Cl)c3Cl)nc3ccccc23)CC1
pIC50 [1]: 6.24
pIC50 [2]: 7.82
pIC50 [3]: 7.51
Ratio IC50 [5]: 12
pIC50 [4]: 6.28
Ratio IC50 [6]: 224

Cc1ccc(-c2cc(NCCN(C)C)c3ccccc3n2)cc1
pIC50 [1]: 5.31
pIC50 [2]: 5.87
pIC50 [3]: 5.45
pIC50 [4]: 5.69
